According to PubChem BioAssay (NCI):
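Tested at 5 concentrations; 48 h exposure; 96-well plates; endpoints linearly interpolated, else capped at highest concentration. Here, GI50 denotes the concentration required for 50% inhibition of growth. TGI marks complete inhibition of growth.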

Tests used:
Assay in all cases: NCI tumour cell line growth inhibition, 48 h
DLD-1 colon = system: DLD-1 colon
DMS 114 small cell lung = system: DMS 114 small cell lung
DMS 273 small cell lung = system: DMS 273 small cell lung
HOP-18 NSCLC = system: HOP-18 NSCLC
KM20L2 colon = system: KM20L2 colon
SNB-78 CNS = system: SNB-78 CNS
XF 498 CNS = system: XF 498 CNS
MDA-N = system: MDA-N
P388 leukemia = system: P388 leukemia
P388/ADR leukemia = system: P388/ADR leukemia
SN12K1 renal = system: SN12K1 renal
RXF-631 renal = system: RXF-631 renal

`C=C(CN(CC(=C)C(=O)c1ccccc1)C(C)(C)C)C(=O)c1ccccc1` was tested. Which TGI (DLD-1 colon) did it give?
Its TGI is 10.2 µM.

And the TGI (DMS 114 small cell lung)?
Its TGI is 33.5 µM.

What about the TGI (DMS 273 small cell lung) of the same compound?
The TGI was 32.4 µM.

And the TGI (HOP-18 NSCLC)?
The TGI was 14.3 µM.

What about the TGI (KM20L2 colon) of the same compound?
Its TGI is 37.5 µM.

What about the TGI (SNB-78 CNS) of the same compound?
The TGI was 53.7 µM.

What about the TGI (XF 498 CNS) of the same compound?
The TGI was 16 µM.

How did the TGI (DLD-1 colon) turn out when `NC(=O)c1[nH]nc(C2OC(CO)C(O)C2O)c1O` (centres undefined) was run?
The TGI was 447 µM.

What about the TGI (DMS 114 small cell lung) of the same compound?
Its TGI is 858 µM.

And the TGI (DMS 273 small cell lung)?
Its TGI is 210 µM.

What about the TGI (HOP-18 NSCLC) of the same compound?
The TGI was 812 µM.

What about the TGI (KM20L2 colon) of the same compound?
Its TGI is over 5000 µM.

And the TGI (MDA-N)?
Its TGI is 923 µM.

And the TGI (P388 leukemia)?
The TGI was 802 µM.

What about the TGI (P388/ADR leukemia) of the same compound?
Its TGI is 241 µM.

What about the TGI (SN12K1 renal) of the same compound?
Its TGI is 663 µM.

And the TGI (SNB-78 CNS)?
Its TGI is 2820 µM.

And the TGI (XF 498 CNS)?
Its TGI is 247 µM.

With `COc1ccc(NC(=O)C(=O)NNC(=O)c2sc(NNC(C)=O)nc2C)c([N+](=O)[O-])c1` as the compound, how does the TGI (DMS 114 small cell lung) read?
Its TGI is over 100 µM.

And the TGI (DMS 273 small cell lung)?
The TGI was over 100 µM.

And the TGI (KM20L2 colon)?
Its TGI is over 100 µM.

What about the TGI (SNB-78 CNS) of the same compound?
Its TGI is over 100 µM.

What about the TGI (XF 498 CNS) of the same compound?
Its TGI is over 100 µM.

Which TGI (MDA-N) does the source give for `O=C(O)c1cc2ccccc2c(N=Nc2c([N+](=O)[O-])cc([N+](=O)[O-])cc2S(=O)(=O)O)c1O` here?
Its TGI is over 100 µM.

`COC(=O)C1=C(C(=O)OC)C23C=CC=CC24C(C(=O)OC)=C(C(=O)OC)C4C1C3` (centres undefined) was tested. Which TGI (DLD-1 colon) did it give?
The TGI was over 100 µM.

What about the TGI (DMS 114 small cell lung) of the same compound?
Its TGI is over 100 µM.

And the TGI (DMS 273 small cell lung)?
The TGI was over 100 µM.

And the TGI (KM20L2 colon)?
The TGI was over 100 µM.

And the TGI (SNB-78 CNS)?
Its TGI is over 100 µM.

What about the TGI (XF 498 CNS) of the same compound?
The TGI was over 100 µM.

What does the source list for `CO[C@H]1[C@H](O)[C@H](O[C@H]2CC[C@@]3(C)[C@H](CC[C@@H]4[C@@H]3CC[C@]3(C)[C@@H](C5=CC(=O)OC5)CC[C@]43O)C2)O[C@@H](C)[C@@H]1O`?
TGI (DLD-1 colon): 0.00767 µM; TGI (DMS 114 small cell lung): 0.00335 µM; TGI (DMS 273 small cell lung): 0.00303 µM; TGI (HOP-18 NSCLC): 0.00382 µM; TGI (KM20L2 colon): 0.0118 µM; TGI (MDA-N): < 0.0001 µM; GI50 (RXF-631 renal): > 100 µM; TGI (RXF-631 renal): > 100 µM

Which results are given for `COC(=O)c1ccccc1NC(=O)C(=O)CC(=O)c1ccccc1NC1=CC(=O)C(=O)c2ccccc21`?
TGI (DLD-1 colon): 30.4 µM; TGI (DMS 114 small cell lung): 5.33 µM; TGI (DMS 273 small cell lung): 25.8 µM; TGI (HOP-18 NSCLC): 29.6 µM; TGI (KM20L2 colon): > 100 µM; TGI (MDA-N): 3.18 µM; TGI (RXF-631 renal): > 80.8 µM; TGI (SNB-78 CNS): > 100 µM; TGI (XF 498 CNS): 30.9 µM

Which TGI (MDA-N) does the source give for `O=C(O)CCC1COc2ccccc2O1` (centres undefined) here?
The TGI was over 10 µM.

For `CCCCn1c2c(c3ccccc3c1=O)C(=O)c1ccccc1-2`, which TGI (MDA-N) is on record?
Its TGI is over 100 µM.

Which TGI (DLD-1 colon) does the source give for `Cc1ccc(S(=O)(=O)N2CCC3(C(/C=C/c4ccccc4)=Nc4ccccc43)C2c2ccccc2)cc1` (centres undefined) here?
The TGI was over 100 µM.

What about the TGI (DMS 114 small cell lung) of the same compound?
The TGI was over 100 µM.

What about the TGI (DMS 273 small cell lung) of the same compound?
Its TGI is over 100 µM.

And the TGI (KM20L2 colon)?
The TGI was over 100 µM.

And the TGI (SNB-78 CNS)?
Its TGI is over 100 µM.

What about the TGI (XF 498 CNS) of the same compound?
Its TGI is over 100 µM.

With `N#C/C(=C/c1cccnc1)C(=O)c1ccccc1` as the compound, how does the TGI (DLD-1 colon) read?
Its TGI is over 100 µM.

And the TGI (DMS 114 small cell lung)?
Its TGI is over 100 µM.

What about the TGI (DMS 273 small cell lung) of the same compound?
The TGI was over 100 µM.

What about the TGI (HOP-18 NSCLC) of the same compound?
The TGI was over 100 µM.

What about the TGI (KM20L2 colon) of the same compound?
The TGI was over 100 µM.

What about the TGI (SNB-78 CNS) of the same compound?
The TGI was over 100 µM.

What about the TGI (XF 498 CNS) of the same compound?
Its TGI is over 100 µM.

For `CCCCCCCCCCCCCC/C(C(=O)OC)=C(/O)C(=O)OCC`, which TGI (DLD-1 colon) is on record?
Its TGI is over 100 µM.

And the TGI (DMS 114 small cell lung)?
Its TGI is over 100 µM.

What about the TGI (DMS 273 small cell lung) of the same compound?
Its TGI is over 100 µM.

And the TGI (HOP-18 NSCLC)?
The TGI was 73.7 µM.

And the TGI (RXF-631 renal)?
The TGI was 93.6 µM.

What about the TGI (SNB-78 CNS) of the same compound?
The TGI was over 100 µM.

What about the TGI (XF 498 CNS) of the same compound?
Its TGI is 53.8 µM.

`Cc1cc(O)c2c(c1)C(=O)c1cc(O)cc(O)c1C2=O` was tested. Which TGI (DLD-1 colon) did it give?
Its TGI is over 100 µM.

And the TGI (DMS 114 small cell lung)?
The TGI was over 100 µM.

What about the TGI (DMS 273 small cell lung) of the same compound?
The TGI was 62.2 µM.

And the TGI (HOP-18 NSCLC)?
The TGI was 37 µM.

And the TGI (KM20L2 colon)?
The TGI was over 100 µM.

What about the TGI (RXF-631 renal) of the same compound?
Its TGI is over 100 µM.

And the TGI (SNB-78 CNS)?
Its TGI is over 100 µM.

And the TGI (XF 498 CNS)?
The TGI was 86.7 µM.

With `CCOP(=O)(CC(=O)C1=C(O)C(CCCNC(=O)OC(C)(C)C)N(Cc2ccc(OC)c(OC)c2)C1=O)OCC` (centres undefined) as the compound, how does the TGI (DLD-1 colon) read?
Its TGI is over 100 µM.

What about the TGI (DMS 114 small cell lung) of the same compound?
The TGI was over 100 µM.

And the TGI (DMS 273 small cell lung)?
The TGI was over 100 µM.

And the TGI (HOP-18 NSCLC)?
Its TGI is over 100 µM.

And the TGI (KM20L2 colon)?
Its TGI is over 100 µM.

And the TGI (RXF-631 renal)?
The TGI was over 100 µM.

`CC1=C(C(=O)Nc2ccccc2C)C(c2ccc([N+](=O)[O-])cc2)C(C(=O)Nc2ccccc2C)=C(C)N1` was tested. Which TGI (DLD-1 colon) did it give?
Its TGI is over 100 µM.

And the TGI (DMS 114 small cell lung)?
The TGI was over 100 µM.

What about the TGI (DMS 273 small cell lung) of the same compound?
Its TGI is over 100 µM.

And the TGI (HOP-18 NSCLC)?
Its TGI is over 100 µM.

And the TGI (KM20L2 colon)?
Its TGI is over 100 µM.

What about the TGI (RXF-631 renal) of the same compound?
The TGI was over 100 µM.

And the TGI (XF 498 CNS)?
The TGI was over 100 µM.

How did the TGI (DLD-1 colon) turn out when `CC12O[C@H](c3ccccc3)[C@H](c3ccccc3)N1C(=O)C1(C(=O)OCc3ccccc3)CC12` (some centres undefined) was run?
Its TGI is over 100 µM.

And the TGI (DMS 114 small cell lung)?
The TGI was over 100 µM.

What about the TGI (DMS 273 small cell lung) of the same compound?
The TGI was over 100 µM.

What about the TGI (KM20L2 colon) of the same compound?
The TGI was over 100 µM.

What about the TGI (RXF-631 renal) of the same compound?
The TGI was over 100 µM.

What about the TGI (XF 498 CNS) of the same compound?
The TGI was over 100 µM.

With `Cc1c(O)c(=O)ccn1C1OC(CO)C(O)C1O` (centres undefined) as the compound, how does the TGI (DLD-1 colon) read?
Its TGI is over 100 µM.

And the TGI (DMS 273 small cell lung)?
The TGI was over 100 µM.

What about the TGI (KM20L2 colon) of the same compound?
The TGI was over 100 µM.

What about the TGI (SNB-78 CNS) of the same compound?
Its TGI is over 100 µM.

What about the TGI (XF 498 CNS) of the same compound?
Its TGI is over 100 µM.

Which TGI (MDA-N) does the source give for `O=C1C=CC(=O)C1(Br)Br` here?
The TGI was 27.5 µM.

With `NCCNCC(O)CO` (centres undefined) as the compound, how does the TGI (MDA-N) read?
Its TGI is over 100 µM.

For `N#Cc1c[nH]n2ccnc12`, which TGI (MDA-N) is on record?
Its TGI is over 100 µM.

For `N/N=C1\c2ccccc2C2/C(=N\N)c3ccccc3C12` (centres undefined), which TGI (DLD-1 colon) is on record?
Its TGI is over 100 µM.

And the TGI (DMS 114 small cell lung)?
Its TGI is over 100 µM.

What about the TGI (DMS 273 small cell lung) of the same compound?
The TGI was over 100 µM.

And the TGI (HOP-18 NSCLC)?
The TGI was over 100 µM.

And the TGI (KM20L2 colon)?
The TGI was over 100 µM.
